Measurements as given in patent US11969460B2, “Methods and compositions for treating decreased cognitive ability” (Saint Louis University, priority 2018, dated 2024).
Values joined by “and” are separate entries in the source; they are usually repeats but may differ in a detail not shown here. Identical values can stand only once.

Legend:
[1] = system: male C57BL/6J (B6) mice, aged 18 months; assay: Novel Object Recognition test after exogenous adropin^34-76 treatment; assay type: in vivo, mouse
Method: For the novel object recognition task, mice are habituated to an empty apparatus, a 58×66×11-cm white plastic box, for 5 min a day for 3 consecutive days prior to entry of objects. On the first day of training, mice are placed in the testing apparatus with two identical objects (A and B). 24h later the animal is reintroduced to the arena but this time one of the original objects is removed and a new object (C). Total time spent exploring each of the two objects is recorded. Anxiety will be assessed using open field and elevated plus maze tests. The experimental apparatus consists of a central platform, two open arms and two equal-sized closed arms opposite to each other. The test consisted of placing a mouse in the central platform facing an enclosed arm and allowing it to freely explore the maze for 5 min. The number of entries into the open and closed arms and the time spent in open arms was measure by an observer blind to treatment
(§1) To examine the effects of […] adropin on a subject's cognitive ability, 34 male C57BL/6J (B6) mice, aged 18 months, were treated with exogenous adropin^34-76. Mice were purchased from The Jackson Laboratory (Bar Harbor, ME). After acclimation for 1 month, mice were separated into two weight matched groups of 15 mice: Group 1 adropin^34-76 treatment group and Group 2 saline vehicle control.
(§2) The mice were administered a single intraperitoneal injection (volume 100 μl) each morning (0900h) for 4 weeks. Group 1 was administered adropin^34-76 at a dose of 90 nmol/kg/day. Group 2 was administered saline. The peptide was purchased from Neoscientific Inc. Behavioral testing began after 2 weeks of injections. Injections continued though testing until 4 weeks.
A non-amnesic subject will spend more time exploring the novel object than the familiar one. When adropin treated and vehicle treated mice were subjected to the Novel Object Recognition test, adropin treated mice spent more time exploring the novel object (FIG. 11, Table 1)

[2] = system: mice; conditions: subjects with diet-induced obesity; Kumar et al. 2008; Gao et al. 2014, 2015; cited from earlier work
[3] = system: mice; assay: Tolerability of adropin^34-76 doses in mice; assay type: in vivo, mouse
Excerpt: Using mice, the Inventors have shown that administration of adropin^34-76, in doses as low as 90 nmol/kg/day, delivered as two 45 nmol/kg injections, can be effective in producing changes in metabolism. Dose as high as 900 nmol/kg/d are well tolerated in mice. While the doses required for a desired clinical effect in humans is expected to vary between patients, the 90 nmol/kg dose administered by subcutaneous, intramuscular, or intravenous injection, either once or twice a day, may represent a preferred treatment protocol. It is anticipated that the treatments would be administered daily, although long-acting formulations involving weekly injections are envisaged. The optimum dose and frequency for a particular subject may be determined by the patient's treating physician, based on the patient's cognitive response. It is anticipated that adropin therapy may or may not improve a subject's cognitive function relative to current baseline, however adropin therapy may result in significant delays in the advancement of the disease. Improvement may manifest as a significant delay or a reduced rate of subsequent cognitive decline.

[4] = system: male C57BL/6J (B6) mice, aged 18 months; assay: Aversive T-maze acquisition after exogenous adropin^34-76 treatment; assay type: in vivo, mouse
Method: (§3) Memory retention and acquisition were assessed using an aversive T-maze and novel objective recognition, as previously described (Farr et al., (2016) J Alzheimers Dis.; 54(4):1339-1348). Briefly, the T-maze consists of a black plastic alley with a start box at one end and two goal boxes at the other. An electrifiable floor of stainless steel rods run throughout the maze to deliver a foot-shock using a scrambled grid floor shocker (Model E13-08, Coulbourn Instruments, Whitehall, PA). Mice are not permitted to explore the maze prior to training. A block of training trials begins when mice are placed in the start box. The guillotine door is raised and a cue buzzer sounded simultaneously (doorbell type, at 55 dB); 5s later a mild aversive foot-shock is applied with an intensity of 0.35 mA. The arm of the maze entered on the first trial is designated “incorrect” and the mild foot-shock continued until the mouse enters the other goal box, which in all subsequent trials is designated “correct” for each mouse. Mice are trained until they made one active avoidance, with an inter-trial interval of 30-35s. The number of trials to make one active avoidance is the measure of acquisition. Retention is tested 7d later, with training continued until the criterion of making five active avoidances in six consecutive trials is achieved. The number of trials needed to reach this criterion is the measure of retention(Butler et al., (2012) The Journal of clinical endocrinology and metabolism.; 97(10):3783-3791; Wong et al., (2014) The Journal of biological chemistry.; 289(37):25976-25986).
as §1, §2
Mice prepared with adropin or placebo in Example 3 were subjected to the Acquisition T-maze test.

[5] = system: male C57BL/6J (B6) mice, aged 18 months; assay: Aversive T-maze retention after exogenous adropin^34-76 treatment; assay type: in vivo, mouse; parameters: key to T-maze Retention, Difference between means (Adropin vs. Vehicle): difference in trials to criterion, adropin minus vehicle; key to T-maze Retention: number of trials to reach criterion (5 avoidances in 6 trials)
Method: as §3, §1, §2
(FIG. 12, Table 3) Mice were retested in the maze after 7 days and Adropin treated mice retained learned memories and complete the maze in lets time.

[6] = system: mice; assay: Metabolic effects of administered adropin^34-76 in mice; assay type: in vivo, mouse
Excerpt: The inventors have engineered transgenic mice that over express adropin (“AdrTG”) in the nervous system and peripheral tissues. […] In addition, reduced JNK phosphorylation and expression of cytokines indicates reduced neuroinflammatory processes. Inflammation is also increasingly considered an important predisposing risk factor for age-related neurodegeneration (Irwin & Vitiello (2019) Lancet Neurol. 18(3):296-306; Madhavan et a., Nat Rev Cardiol. 15(12):744-756). […] In addition, the inventors have also shown that adropin levels may be increased systemically by […] administration. […] (Kumar et al. 2008; Gao et al. 2014, 2015)
Using mice, the Inventors have shown that administration of adropin^34-76, in doses as low as 90 nmol/kg/day, delivered as two 45 nmol/kg injections, can be effective in producing changes in metabolism. Dose as high as 900 nmol/kg/d are well tolerated in mice. While the doses required for a desired clinical effect in humans is expected to vary between patients, the 90 nmol/kg dose administered by subcutaneous, intramuscular, or intravenous injection, either once or twice a day, may represent a preferred treatment protocol. […] The optimum dose and frequency for a particular subject may be determined by the patient's treating physician, based on the patient's cognitive response. […]

[7] = Body weight and deaths during 4-week intraperitoneal treatment; assay type: in vivo; conditions: group 1, 90 nmol/kg/day intraperitoneal
Method: as §1, §2

## Adropin^34-76 (CHSRSADVDSLSESSPNSSPGPCPEKAPPPQKPSHEGSYLLQP; listed as Homo sapiens)
[1]; 95% confidence interval 2.733 to 27.24
  Novel Object Recognition % Novel Object, Difference between means (Adropin vs. Vehicle): 14.99 ± 5.982%
[1]; individual mice, 90 nmol/kg/day intraperitoneal, 24 hour delay
  Novel Object Recognition test 24 Hour delay % Novel Object: 55.56% and 77.50% and 66.67% and 79.10% and 51.06% and 100.00% and 51.61% and 46.43% and 42.86% and 53.06% and 37.50% and 40.74% and 64.58% and 62.50% and 58.82%
[1]; n = 15, 90 nmol/kg/day intraperitoneal, P 0.0183 vs. Vehicle
  Novel Object Recognition % Novel Object, Mean ± SEM: 58.88 ± 4.106, n = 15%
[1]; vs vehicle treated mice
  cognitive performance in Novel Object Recognition test (in words): improved cognitive performance
[2]
  metabolic changes after intraperitoneal injection (in words): metabolic changes suggesting improvements in glucose control and reduced risk for type 2 diabetes
[3]
  well tolerated dose: ≤ 900 nmol/kg/day
[4]; 95% confidence interval −4.736 to −2.150
  T-maze acquisition, Difference between means (Adropin vs. Vehicle): −3.443 ± 0.6301
[4]; individual mice, number of trials to make one active avoidance, 90 nmol/kg/day intraperitoneal
  T-maze acquisition: 7. (5×) and 8. (4×) and 9. (2×) and 6. (3×)
[4]; n = 14, P <0.0001 vs. Vehicle
  T-maze acquisition, Mean ± SEM: 7.357 ± 0.2695,
[4]; vs placebo treated mice
  performance in Acquisition T-maze test (in words): improved performance
[5]; 95% confidence interval −3.121 to −1.565
  T-maze Retention, Difference between means (Adropin vs. Vehicle): −2.343 ± 0.3792
[5]; individual mice, retested after 7 days, trials to five active avoidances in six consecutive trials, 90 nmol/kg/day intraperitoneal
  T-maze Retention: 7. (7×) and 8. and 6. (5×) and 9.
[5]; n = 14, P <0.0001 vs. Vehicle
  T-maze Retention, Mean ± SEM: 6.857 ± 0.2310,
[5]; retested after 7 days
  performance in T-maze retention (in words): superior performance
[6]; male B6 mice, injection
  dose known to affect metabolic control: about 450 nmol/kg
[6]; mice, delivered as two 45 nmol/kg injections
  dose effective in producing changes in metabolism: ≥ 90 nmol/kg/day
[7]
  deaths during treatment: One mouse in group 1 died
